The text below walks through data of US7361662B2, “Pyridopyrimidinone compounds, method for production thereof and medicaments comprising the same” (Les Laboratoires Servier, priority 2002, dated 2008).

The test system of the assay is obese ob/ob mouse (model of obesity-associated insulin resistance). The assay can be described thus: Hypolipaemic activity in the obese ob/ob mouse. Format: in vivo. Here is the method:
The products of the invention were tested in vivo in the obese ob/ob mouse, used as a model of obesity-associated insulin resistance.

Consider `CCCN(CCC)c1nc2c(N3CCCCCC3)nc(N3CCOCC3)cc2c(=O)[nH]1` [Example 6, 8-(1-Azepanyl)-2-(dipropylamino)-6-(4-morpholinyl)pyrido[3,4-d]pyrimidin-4(3H)-one], for which, where the note is “125 mg/kg per os”, the reduction of triglycerides entry is “significantly reduces the triglycerides”. As to `CN(C)C(=N)N=C(N)N` [metformin], the reduction of triglycerides result (250 mg/kg per os) is listed as “the same reduction is obtained”.
